{
  "source": "patent US20230357272A1",
  "about": "“OCTAHYDROPYRAZINODIAZANAPHTHYRIDINE DIONE COMPOUNDS” (MEDSHINE DISCOVERY INC., priority 2020, published 2023)",
  "key": {"[1]": {"test_system": "NCI-H358 cells", "test": "Anti-proliferation experiment of H358 cells (CellTiter-Glo)", "assay_type": "cell-based", "details": "Homo sapiens, 120 h, 5 days", "procedure": "RPMI-1640 culture medium, penicillin/streptomycin antibiotics purchased from Wisent, and fetal bovine serum purchased from Biosera. CellTiter-Glo (chemiluminescence detection reagent for cell viability) reagent purchased from Promega. NCI-H358 cell line purchased from the Cell Bank of the Chinese Academy of Sciences. Nivo multi-label analyzer (PerkinElmer).\nNCI-H358 cells were seeded in a white 96-well plate with 80 μL of cell suspension per well, which contained 4000 NCI-H358 cells. The cell plate was incubated overnight in a carbon dioxide incubator.\n(§1) The compounds to be tested were diluted 3-fold with a row gun to the ninth concentration, that is, from 2 mM to 304 nM, and a double-duplication experiment was set up. 78 μL of culture medium was added to a middle plate, and then 2 μL of gradient diluted compound per well was transferred to the middle plate according to the corresponding position. After being thoroughly mixed, 20 μL per well was transferred to the cell plate. The concentration range of the compound transferred to the cell plate was 10 μM to 1.52 nM. The cell plate was placed in the carbon dioxide incubator for 5 days. Another cell plate was prepared, and the signal value was read as the maximum value (Max value in the equation below) on the day of administration to participate in data analysis. 25 μL of cell viability chemiluminescence detection reagent was added to each well of the cell plate, and incubated at room temperature for 10 minutes to stabilize the luminescence signal. A multi-label analyzer was used for reading.\n25 μL of cell viability chemiluminescence detection reagent was added to each well of the cell plate, and incubated at room temperature for 10 minutes to stabilize the luminescence signal. A multi-label analyzer was used for reading.\nUsing the equation (Sample−Min)/(Max−Min)*100% to convert the raw data into inhibition rate, and the value of IC50 might be obtained by curve fitting with four parameters (obtained by “log (inhibitor) vs. response—Variable slope” mode in GraphPad Prism). Table 1 provides the inhibitory activity of the compounds of the present disclosure on the proliferation of NCI-H358 cells."}, "[2]": {"test_system": "MIA-PA-CA-2 cells", "test": "Anti-proliferation experiment of MIA-PA-CA-2 cells (CellTiter-Glo)", "assay_type": "cell-based", "details": "Homo sapiens, MIA PaCa-2, 72 h, 3 days", "procedure": "DMEM culture medium, fetal bovine serum purchased from Biosera, and horse serum purchased from Gibco. CellTiter-Glo (chemiluminescence detection reagent for cell viability) reagent purchased from Promega. MIA-PA-CA-2 cell line purchased from Nanjing CoBioer Biotechnology Co., Ltd. EnVision multi-label analyzer (PerkinElmer).\nMIA-PA-CA-2 cells were seeded in a white 96-well plate with 80 μL of cell suspension per well, which contained 1000 MIA-PA-CA-2 cells. The cell plate was incubated overnight in a carbon dioxide incubator.\nas §1, with “diluted 5-fold” for “diluted 3-fold”, “the eighth” for “the ninth”, “to 26” for “to 304”, “to 0.13” for “to 1.52”, “for 3” for “for 5”\nUsing the equation (Sample−Min)/(Max−Min)*100% to convert the raw data into inhibition rate, and the value of IC50 might be obtained by curve fitting with four parameters (obtained by “log (inhibitor)/response—Variable scope” mode in GraphPad Prism software). Table 2 provides the inhibitory activity of the compounds of the present disclosure on the proliferation of MIA-PA-CA-2 cells."}},
  "data": [
    {"compound": "C=CC(=O)N1CCN2c3c(c(=O)n(-c4c(CC)cncc4CC)c4c(=O)n(-c5c(N)c(Cl)cc(Cl)c5F)c(C(F)(F)F)cc34)OCC[C@H]2C1", "note": "[Compound 6]", "values": [
      {"measurement": "IC50", "setting": "[1]", "value": 2, "unit": "nM"},
      {"measurement": "IC50", "setting": "[2]", "value": 4, "unit": "nM"}
    ]},
    {"compound": "C=CC(=O)N1CCN2c3c(c(=O)n(-c4c(C(C)C)ncnc4C(C)C)c4c(=O)n(-c5c(N)c(Cl)cc(Cl)c5F)c(C(F)(F)F)cc34)OCC[C@H]2C1", "note": "[Compound 4]", "values": [
      {"measurement": "IC50", "setting": "[1]", "value": 0.9, "unit": "nM"},
      {"measurement": "IC50", "setting": "[2]", "value": 1, "unit": "nM"}
    ]},
    {"compound": "C=CC(=O)N1CCN2c3c(c(=O)n(-c4c(CC)ncnc4CC)c4c(=O)n(-c5c(N)c(Cl)cc(Cl)c5F)c(C(F)(F)F)cc34)OCC[C@H]2C1", "note": "[Compound 5]", "values": [
      {"measurement": "IC50", "setting": "[1]", "value": 4, "unit": "nM"},
      {"measurement": "IC50", "setting": "[2]", "value": 5, "unit": "nM"}
    ]}
  ]
}
